For test [1], the system named is MKN45 cell line (cell line expressing active RON). Nature of the test: Cell growth inhibition MTS assay on MKN45. The class given is cell-based. As to conditions: Homo sapiens, MKN-45, 48 hours, read-out: Growth inhibitory capacity on MKN45 cells, IC50. On the procedure:
MTS assay was performed to identify whether the compound according to the present invention has a cancer cell proliferation inhibitory effect through inhibition of extracellular signal-regulated kinase activity.
The following assay was performed on MKN45 cell line (cell line expressing active RON), a human gastric cancer cell line. The MKN45 cell line was dispensed at a concentration of 5,000 cells/well in a 96-well plate containing RPMI-1640 medium (Gibco, Invitrogen) containing 10% FBS, and then the plate was incubated for 24 hours at a condition of 5% CO2 and 37° C. Then, the respective wells were subjected to treatment with the compounds prepared in the examples, each of which was sequentially diluted from its high concentration of 10 μM. For a solvent control, the respective wells were subjected to treatment with dimethyl sulfoxide (DMSO) at the same concentrations (% (v/v)) to those used for the treatment with the compounds. Then, the respective cells were incubated for 48 hours.
In order to identify degree of viability of the cells, a mixture of MTS and phenazine methosulfate (PMS) provided in CellTiter 96 AQuous Non-Radioactive Cell Proliferation Assay Kit (Promega) was added to each cultured cell medium. Additional incubation was performed at a condition of 37° C. for 2 hours and 30 minutes. Then, absorbance was measured at 490 nm. […] In the following, A represents <10 nM, B represents 10 to 50 nM, and C represents >50 nM.
In general terms: Tetrazolium dyes change colour on reduction, which living cells bring about.

A further test has as its target RON enzyme (Homo sapiens, UniProt Q04912). The experiment in a line: RON activity inhibition assay (ADP-Glo). The class given is biochemical. As to conditions: 50 uM ATP, G4Y1 peptide substrate. The protocol: Enzymatic reaction was allowed to proceed using 2 ng/uL of 250 uM G4Y1 peptide, which serves as a substrate for RON enzyme, and 50 uM ATP in assay buffer (40 mM Tris-HCl, pH 7.5, 20 mM MgCl2, 0.1 mg/mL bovine serum albumin, 50 uM DTT). The resultant was subjected to treatment with the compounds prepared in the examples and the comparative examples at various concentrations, and reaction was allowed to proceed at room temperature for 1 hour. Then, ADP-Glo™ Reagent and Kinase Detection Reagent were sequentially added thereto, and reaction was allowed to proceed at room temperature for 40 minutes and 30 minutes, respectively.
Subsequently, luminescence was measured using Wallaac Victor 2TM (PerkinElmer Life Sciences, 1420-042). Data were analyzed with the measured RLU values to verify activity of the RON inhibitors. The RLU value of a sample which was not treated with the compound was set as a 100% control, and the activity of the RON inhibitor was evaluated as a percentage of residual activity of the RON enzyme in the sample that was treated with the compound at the concentration to be tested.

Test [2] concerns colon cancer patient tissue (active RON/RON mutant #1: Δ160). Nature of the test: Efficacy in animal model transplanted with colon cancer patient tissue, 30 mpk. The class given is in vivo. As to conditions: 30 mpk for 4 weeks. The protocol:
Example 18 and Comparative Example 1 were administered to an animal model transplanted with the same patient tissue (active RON/RON mutant #1: Δ160) cells as in the animal model transplanted with colon cancer patient tissue tumor cells at 30 mpk for 4 weeks. […] The lower pictures of FIG. 21 show tumors extracted from representative individuals of the respective groups.

The test system of another test is Colo320HSR (RON-). Nature of the test: Cell death-inducing ability, trypan blue exclusion, Colo320HSR. The class given is cell-based. The settings on record: 48 hours. On the procedure: (§1) The cell death-inducing ability of Example 18 and Comparative Example 1 was measured in KM12C with RON mutant (Δ160), a cetuximab-resistant cell line, and Colo320HSR cell line, a cell line not expressing RON. The two colon cancer cell lines were seeded, respectively, onto 60-mm plates at 2×10^5 cells. Then, after 24 hours, while performing medium exchange, the cells were subjected to treatment with the sample compounds at respective concentrations (1 μM, 5 μM) for 48 hours. After 48 hours, the cells and cell suspensions were collected (1,500 rpm, 3 minutes), and live cells and dead cells were quantitated (n=2) through trypan blue (15250-061, Gibco) exclusion assay.

Test [3] concerns KM12C (RONΔ160). The experiment in a line: Cell death-inducing ability, trypan blue exclusion, KM12C. As to conditions: 48 hours. The format is cell-based, human. On the procedure: as §1
The subject of test [4] is KM12C (RONΔ160). Nature of the test: MTS assay KM12C (Experimental Example 6). The format is cell-based. The settings on record: Homo sapiens, 72 hours. On the procedure: In MTS assay for Example 18 and Comparative Example 1, KM12C cell line was seeded at 1,000 cells per well into 96-well plates. After 24 hours, the cells were treated with various concentrations (0.000001 uM to 10 uM) of Example 18 and Comparative Example 1 in 100 ul of 10% FBS-MEM medium (Welgene) per well. Subsequently, the cells were incubated for 72 hours. Then, 20 μl of MTS solution (Promega) was added thereto, and incubation was performed for 2 hours. Then, the absorbance was measured at 490 nm. The IC50 values for Example 18 and Comparative Example 1 were calculated using GraphPad Prism™ 5 to investigate cytotoxicity.

The subject of another test is KM12C cell line tumor. Nature of the test: Efficacy in animal model transplanted with KM12C, 30 and 50 mpk (Experimental Example 11). The settings on record: once a day for 2 weeks. The class given is in vivo, BALB/c nude mice. On the procedure: 5-Week-old female BALB/c nude mice were purchased and acclimatized for 1 week. Then, human-derived colon cancer cell line KM12C (1.5×10^6 cells/mice) was diluted in PBS, and injected subcutaneously (100 μl) into the right dorsal side of the mice. Comparative Examples 1 and Example 18 were orally administered when the tumor reached a size of about 100 mm^3. The drug was administered at 30 mpk and 50 mpk once a day for 2 weeks, and tumor size and body weight were measured twice a week. […] After completion of the drug administration, the experimental animals were euthanized, and then the tumors were extracted and weighed to perform comparative analysis.

The values below come from patent US20230172914A1, “BIOMARKER-BASED THERAPEUTIC COMPOSITION” (WELLMARKER BIO CO., LTD., priority 2019, published 2023).

As a reminder, the IC50 is the concentration needed to halve the response being measured.

The structures appear in SMILES notation. Where a name gives a salt, the structure may show the parent alone.

Sequence of RON enzyme (Q04912 25-1400): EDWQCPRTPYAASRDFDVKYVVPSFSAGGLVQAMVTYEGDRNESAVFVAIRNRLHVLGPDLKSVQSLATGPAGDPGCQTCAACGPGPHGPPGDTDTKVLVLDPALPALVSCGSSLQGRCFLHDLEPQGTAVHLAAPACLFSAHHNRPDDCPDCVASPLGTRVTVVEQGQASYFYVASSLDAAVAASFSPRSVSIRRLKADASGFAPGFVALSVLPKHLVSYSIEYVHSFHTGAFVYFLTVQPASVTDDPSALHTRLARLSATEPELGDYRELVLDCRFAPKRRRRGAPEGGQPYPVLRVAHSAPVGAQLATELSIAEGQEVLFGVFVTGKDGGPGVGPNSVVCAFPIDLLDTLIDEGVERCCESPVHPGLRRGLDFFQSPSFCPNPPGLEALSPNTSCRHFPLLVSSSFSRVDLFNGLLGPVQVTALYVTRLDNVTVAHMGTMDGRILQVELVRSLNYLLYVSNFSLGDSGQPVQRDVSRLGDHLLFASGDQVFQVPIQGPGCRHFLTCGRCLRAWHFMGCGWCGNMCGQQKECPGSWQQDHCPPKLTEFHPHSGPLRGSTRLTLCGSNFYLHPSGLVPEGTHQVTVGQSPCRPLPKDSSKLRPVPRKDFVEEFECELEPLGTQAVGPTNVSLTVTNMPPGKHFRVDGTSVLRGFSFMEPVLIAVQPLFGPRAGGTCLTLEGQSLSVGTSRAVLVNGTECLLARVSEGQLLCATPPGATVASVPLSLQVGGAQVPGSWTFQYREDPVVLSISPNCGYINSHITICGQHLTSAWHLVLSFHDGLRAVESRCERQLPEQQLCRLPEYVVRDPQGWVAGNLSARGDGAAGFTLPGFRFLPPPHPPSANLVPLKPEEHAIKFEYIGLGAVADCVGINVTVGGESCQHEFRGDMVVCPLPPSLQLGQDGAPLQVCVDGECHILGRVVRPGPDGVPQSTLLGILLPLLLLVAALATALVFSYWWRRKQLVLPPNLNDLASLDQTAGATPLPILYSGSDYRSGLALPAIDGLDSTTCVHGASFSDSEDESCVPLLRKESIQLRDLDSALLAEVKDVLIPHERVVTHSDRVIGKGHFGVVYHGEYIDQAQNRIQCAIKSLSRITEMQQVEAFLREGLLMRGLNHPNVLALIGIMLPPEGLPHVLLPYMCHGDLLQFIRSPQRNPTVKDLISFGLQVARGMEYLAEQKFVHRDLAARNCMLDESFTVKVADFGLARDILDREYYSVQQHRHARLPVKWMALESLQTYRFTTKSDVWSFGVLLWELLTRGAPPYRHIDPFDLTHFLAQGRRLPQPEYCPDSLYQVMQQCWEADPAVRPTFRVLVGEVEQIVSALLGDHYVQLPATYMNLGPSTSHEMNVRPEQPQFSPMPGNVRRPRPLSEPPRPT

In the case of `CCOc1ccn(-c2ccc(F)cc2)c(=O)c1C(=O)Nc1ccc(Oc2ccnc3cc(-c4nccn4C)sc23)c(F)c1` [Example 3, 4-ethoxy-N-(3-fluoro-4-(2-(1-methyl-1H-imidazol-2-yl)thieno[3,2-b]pyridine-7-yloxy)phenyl)-1-(4-fluorophenyl)-2-oxo-1,2-dihydropyridine-3-carboxamide], the IC50 in test [1] was in the range of 10 to 50 nM.

For `COCn1cnc(-c2cc3nccc(Oc4ccc(NC(=O)c5c(OC)ccn(-c6ccccc6)c5=O)cc4F)c3s2)c1` [Example 9, 4-methoxy-N-(3-fluoro-4-(2-(1-(methoxymethyl)-1H-imidazol-4-yl)thieno[3,2-b]pyridin-7-yloxy)phenyl)-1-phenyl-2-oxo-1,2-dihydropyridine-3-carboxamide], in test [1], the IC50 was 10 to 50 nM.

In the case of `CCOc1ccn(-c2ccc(F)cc2)c(=O)c1C(=O)Nc1ccc(Oc2ccnc3cc(CN4CCN(C)CC4)sc23)c(F)c1` [Example 11, 4-ethoxy-N-(3-fluoro-4-(2-((4-methylpiperazin-1-yl)methyl)thieno[3,2-b]pyridine-7-yloxy)phenyl)-1-(4-fluorophenyl)-2-oxo-1,2-dihydropyridine-3-carboxamide], the IC50 in test [1] was greater than 50 nM.

For `CCOc1ccn(Cc2ccc(F)cc2)c(=O)c1C(=O)Nc1ccc(Oc2ccnc3cc(-c4cn(CC)cn4)sc23)c(F)c1` [Example 8, 4-ethoxy-N-(4-(2-(1-ethyl-1H-imidazol-4-yl)thieno[3,2-b]pyridin-7-yloxy)-3-fluorophenyl)-1-(4-fluorobenzyl)-2-oxo-1,2-dihydropyridine-3-carboxamide], the IC50 in test [1] was greater than 50 nM.

Turning to `CCOc1ccn(-c2ccc(F)cc2)c(=O)c1C(=O)Nc1ccc(Oc2ccnc3cc(-c4nccs4)sc23)c(F)c1` [Example 7, 4-ethoxy-N-(3-fluoro-4-(2-(thiazol-2-yl)thieno[3,2-b]pyridin-7-yloxy)phenyl)-1-(4-fluorophenyl)-2-oxo-1,2-dihydropyridine-3-carboxamide], in test [1], the IC50 is greater than 50 nM.

As to `CCOc1ccn(-c2ccc(F)cc2)c(=O)c1C(=O)Nc1ccc(Oc2ccnc3cc(-c4cccnc4)sc23)c(F)c1` [Example 6, 4-ethoxy-N-(3-fluoro-4-(2-(pyridin-3-yl)thieno[3,2-b]pyridin-7-yloxy)phenyl)-1-(4-fluorophenyl)-2-oxo-1,2-dihydropyridine-3-carboxamide], the IC50 in test [1] lay in the range of 10 to 50 nM.

As to `CCOc1ccn(-c2ccc(F)cc2)c(=O)c1C(=O)Nc1ccc(Oc2ccnc3cc(-c4cnn(C)c4)sc23)c(F)c1` [Example 4, 4-ethoxy-N-(3-fluoro-4-(2-(1-methyl-1H-pyrazol-4-yl)thieno[3,2-b]pyridine-7-yloxy)phenyl)-1-(4-fluorophenyl)-2-oxo-1,2-dihydropyridine-3-carboxamide], the IC50 in test [1] was in the range of 10 to 50 nM.

For `CCOc1ccn(-c2ccc(F)cc2)c(=O)c1C(=O)Nc1ccc(Oc2ccnc3cc(CN4CCNCC4)sc23)c(F)c1` [Example 10, 4-ethoxy-N-(3-fluoro-4-(2-(piperazin-1-ylmethyl)thieno[3,2-b]pyridin-7-yloxy)phenyl)-1-(4-fluorophenyl)-2-oxo-1,2-dihydropyridine-3-carboxamide hydrochloride], the IC50 in test [1] is greater than 50 nM.

`CCOc1ccn(C)c(=O)c1C(=O)Nc1ccc(Oc2ccnc3cc(-c4cn(C)cn4)sc23)c(F)c1` [Example 2, 4-ethoxy-N-(3-fluoro-4-(2-(1-methyl-1H-imidazol-4-yl)thieno[3,2-b]pyridine-7-yloxy)phenyl)-1-methyl-2-oxo-1,2-dihydropyridine-3-carboxamide]: the IC50 in test [1] is greater than 50 nM.

As to `CCOc1ccn(-c2ccc(F)cc2)c(=O)c1C(=O)Nc1ccc(Oc2ccnc3cc(-c4ccccn4)sc23)c(F)c1` [Example 5, 4-ethoxy-N-(3-fluoro-4-(2-(pyridin-2-yl)thieno[3,2-b]pyridin-7-yloxy)phenyl)-1-(4-fluorophenyl)-2-oxo-1,2-dihydropyridine-3-carboxamide], the IC50 in test [1] is 10 to 50 nM; at RON enzyme it was 8.8 nM.

With `CCOc1ccn(-c2ccc(F)cc2)c(=O)c1C(=O)Nc1ccc(Oc2ccnc(N)c2Cl)c(F)c1` [Comparative Example 1, N-{4-[(2-amino-3-chloro-4-pyridinyl)oxy]-3-fluorophenyl}-4-ethoxy-1-(4-fluorophenyl)-2-oxo-1,2-dihydro-3-pyridinecarboxamide, reference compound], the “tumor growth inhibition efficacy” value is “about 18%” in test [2]; “very high tumor growth inhibition efficacy” with KM12C cell line tumor (30 mpk and 50 mpk oral). Besides, the results for the “Cell death, Colo320HSR (RON-)” value in the test on Colo320HSR (RON-) (1 μM) and in the test with Colo320HSR (RON-) (5 μM) were 5.9 and 8.2, respectively. Also, the “Cell death, KM12C (RONΔ160)” value in the test on KM12C (RONΔ160) [3] (1 μM) is recorded as 11.7; in the test with KM12C (RONΔ160) [3] (5 μM) it was 21.1. The compound further came in with an IC50 with KM12C (RONΔ160) [4] of 358 nM. Further, the “TGI (%)” value in the test with KM12C cell line tumor (30 mg/kg oral) came to 82.4%; in the test with KM12C cell line tumor (50 mg/kg oral), 83.7%.

Regarding `CCOc1ccn(-c2ccc(F)cc2)c(=O)c1C(=O)Nc1ccc(Oc2ccnc3cc(-c4cn(C)cn4)sc23)c(F)c1` [Example 1, 4-ethoxy-N-(3-fluoro-4-(2-(1-methyl-1H-imidazol-4-yl)thieno[3,2-b]pyridine-7-yloxy)phenyl)-1-(4-fluorophenyl)-2-oxo-1,2-dihydropyridine-3-carboxamide], the IC50 was less than 10 nM in test [1] and 11.1 nM against RON enzyme.
